Assay results taken from ChEMBL document CHEMBL1201862, “PubChem BioAssay data set” (2004).
“And” between values parts separate entries of the source, which are not always exact repeats. Equal entries are not always repeated. The source made the active and inactive calls.

Key:
Cytochrome P450 2C9 = Cytochrome P450 2C9 (Homo sapiens, UniProt P11712)
[1] = viability of uninfected HEp-2 cells – cell-based, HTS, cytotoxicity control for RSV inhibitor project, dose response (AID 2410); assay type: functional; conditions: human respiratory syncytial virus
Cytochrome P450 1A2 = target: T1, Cytochrome P450 1A2 (Homo sapiens, UniProt P05177);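 note: PubChem cytochrome P450 panel assay, CYP1A2 panel member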
T1 sequence (P05177 whole entry): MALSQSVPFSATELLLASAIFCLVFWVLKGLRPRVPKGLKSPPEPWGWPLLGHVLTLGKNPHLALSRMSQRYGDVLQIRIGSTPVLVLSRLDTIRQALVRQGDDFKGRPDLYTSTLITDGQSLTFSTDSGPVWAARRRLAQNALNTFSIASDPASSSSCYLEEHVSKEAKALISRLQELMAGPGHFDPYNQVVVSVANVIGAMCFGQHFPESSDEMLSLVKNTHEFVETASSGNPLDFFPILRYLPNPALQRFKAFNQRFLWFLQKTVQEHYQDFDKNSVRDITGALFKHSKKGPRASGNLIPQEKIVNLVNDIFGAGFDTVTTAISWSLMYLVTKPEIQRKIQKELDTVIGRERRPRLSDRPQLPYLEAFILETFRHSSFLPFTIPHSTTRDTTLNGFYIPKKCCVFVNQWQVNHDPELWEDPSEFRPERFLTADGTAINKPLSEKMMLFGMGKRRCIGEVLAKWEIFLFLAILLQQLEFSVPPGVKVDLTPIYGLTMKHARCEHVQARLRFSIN

[2] = Trypanosoma cruzi growth suppression in host cells – NIH3T3 host cells, beta-gal luminescence, confirmation (AID 2044); assay type: functional, cell-based;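 note: intracellular parasites grown in NIH/3T3 mouse fibroblasts as host cells; luminescent beta-galactosidase reporter signal from transgenic T. cruzi replicating inside host cells; inhibitors lower the luminescence signal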
[3] = NIH3T3 cell viability loss – ATP luminescence, mouse fibroblasts, counter-screen, dose response (AID 2010); assay type: functional, cell-based;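 note: cells exposed to compound for about 90 hours before reading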
[4] = target: T2, Corticotropin-releasing factor receptor 2/Corticotropin-releasing factor-binding protein (Homo sapiens, UniProt P24387+Q13324); assay: activators of CRF receptor 2 with binding protein – uHTS hits, confirmation (AID 602473); assay type: functional; conditions: read-out: EC50_Mean
T2 sequence (Q13324 whole entry): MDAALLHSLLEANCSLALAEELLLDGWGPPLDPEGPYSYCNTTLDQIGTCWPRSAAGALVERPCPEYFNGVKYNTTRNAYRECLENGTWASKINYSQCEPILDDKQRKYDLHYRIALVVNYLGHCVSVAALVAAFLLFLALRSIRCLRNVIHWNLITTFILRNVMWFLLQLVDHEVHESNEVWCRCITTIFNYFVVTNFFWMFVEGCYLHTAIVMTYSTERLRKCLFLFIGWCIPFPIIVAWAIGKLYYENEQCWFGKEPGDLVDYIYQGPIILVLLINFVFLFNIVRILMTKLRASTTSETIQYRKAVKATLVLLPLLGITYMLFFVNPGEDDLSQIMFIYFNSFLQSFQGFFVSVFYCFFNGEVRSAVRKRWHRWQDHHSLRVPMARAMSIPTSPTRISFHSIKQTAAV
T2 sequence (P24387 whole entry): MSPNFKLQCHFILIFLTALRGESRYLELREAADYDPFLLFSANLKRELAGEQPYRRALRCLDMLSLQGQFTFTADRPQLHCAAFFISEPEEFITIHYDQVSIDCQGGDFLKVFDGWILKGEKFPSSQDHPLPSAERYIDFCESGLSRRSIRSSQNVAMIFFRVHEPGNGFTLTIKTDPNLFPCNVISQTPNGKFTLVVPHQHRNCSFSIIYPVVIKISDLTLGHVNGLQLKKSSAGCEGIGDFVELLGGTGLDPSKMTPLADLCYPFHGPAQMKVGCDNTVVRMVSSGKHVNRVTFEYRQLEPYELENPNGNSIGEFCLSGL

Cytochrome P450 2D6 = Cytochrome P450 2D6 (Homo sapiens, UniProt P10635);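 note: CYP2D6 member of a cytochrome P450 panel assay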
Sequence of Cytochrome P450 2D6 (P10635 whole entry): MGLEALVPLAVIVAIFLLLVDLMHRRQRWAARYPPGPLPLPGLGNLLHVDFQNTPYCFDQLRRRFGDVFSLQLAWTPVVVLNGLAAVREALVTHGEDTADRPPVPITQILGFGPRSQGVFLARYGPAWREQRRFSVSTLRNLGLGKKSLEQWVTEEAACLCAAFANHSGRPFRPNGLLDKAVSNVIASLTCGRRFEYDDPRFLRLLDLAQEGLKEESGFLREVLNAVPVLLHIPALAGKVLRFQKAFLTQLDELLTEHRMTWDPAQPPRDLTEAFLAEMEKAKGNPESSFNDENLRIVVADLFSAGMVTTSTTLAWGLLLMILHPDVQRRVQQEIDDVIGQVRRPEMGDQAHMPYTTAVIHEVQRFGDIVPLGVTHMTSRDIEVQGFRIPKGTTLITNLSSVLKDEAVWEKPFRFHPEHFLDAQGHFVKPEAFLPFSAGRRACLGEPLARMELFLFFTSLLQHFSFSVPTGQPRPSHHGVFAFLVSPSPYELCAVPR

Sequence of Cytochrome P450 2C9 (P11712 whole entry): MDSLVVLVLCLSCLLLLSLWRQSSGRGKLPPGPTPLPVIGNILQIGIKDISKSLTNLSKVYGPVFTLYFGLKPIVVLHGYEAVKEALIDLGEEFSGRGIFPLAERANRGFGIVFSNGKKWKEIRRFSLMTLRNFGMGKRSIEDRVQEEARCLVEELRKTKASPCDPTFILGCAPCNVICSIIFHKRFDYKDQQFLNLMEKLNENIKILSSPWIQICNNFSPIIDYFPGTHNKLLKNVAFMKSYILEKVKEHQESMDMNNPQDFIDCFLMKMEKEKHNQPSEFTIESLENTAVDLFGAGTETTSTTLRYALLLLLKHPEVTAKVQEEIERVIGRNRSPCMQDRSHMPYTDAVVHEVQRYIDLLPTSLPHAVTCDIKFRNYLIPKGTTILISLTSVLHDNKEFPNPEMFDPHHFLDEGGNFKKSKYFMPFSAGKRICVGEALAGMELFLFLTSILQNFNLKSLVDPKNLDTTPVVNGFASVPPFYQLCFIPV

## CC(=O)Nc1ccc(Cc2ccc3nc(O)cc(C)c3c2)cc1
Cytochrome P450 2C9
  AC50: 6.31 µM (inconclusive)

## O=C(NCc1nnc2c3ccccc3c(-c3ccccc3)nn12)c1ccc(Cl)cc1
[1]
  CC50: 7.36 µM (active)

## CC(Oc1ccc(-c2ccccc2)cc1)C(=O)O (stereo not given)
Cytochrome P450 1A2
  AC50: 25.1 µM (inconclusive)
Cytochrome P450 2C9
  AC50: 39.8 µM (inconclusive)

## OCCC1CN(Cc2ccc3nonc3c2)CCN1Cc1ccsc1 (stereo not given)
[2]
  EC50: 0.452 µM (active)
[3]
  EC50: > 60 µM (not active)

## CCOc1cc(C)c(C(C)C)cc1S(=O)(=O)n1cnc(C)c1
[4]
  EC50: > 53 µM (inactive)
[2]
  EC50: 1.53 µM (active)
[3]
  EC50: 8.49 µM (active)

## CCOC(=O)C(C)Sc1nnc(CNC(=O)c2ccc(OC)cc2)n1C1CCCCC1 (stereo not given)
Cytochrome P450 2C9
  AC50: 15.8 µM (inconclusive)

## COC(=O)Cn1c(C(=O)N2CCCC2)cc2c1C[C@H]1CN(C(=O)c3ccccc3)[C@@](Cc3ccc(F)cc3)(C(=O)OC)[C@@H]21
Cytochrome P450 1A2
  AC50: 15.8 µM (inconclusive)

## CC(C)NC[C@@H](O)COc1ccc(CCOCC2CC2)cc1
Cytochrome P450 1A2
  AC50: 15.8 µM (inconclusive) and 12.6 µM (inconclusive)

## O=C(Nc1ccccc1C(=O)O)c1cc(S(=O)(=O)N2CCCCC2)c(Cl)cc1Cl
[2]
  EC50: 3.6 µM (active)
[3]
  EC50: 14 µM (active)

## C/C(CCC(=O)OC[C@@H]1O[C@H](C#Cc2ccccc2)C=C[C@@H]1Oc1ccc(C)cc1)=N/O[C@@H](C)CN1CCCc2nc(C)c(C)cc21
Cytochrome P450 2C9
  AC50: 2.51 µM (inconclusive)

## CCOC(=O)NC(=O)CSc1nc2cc(OCC)ccc2[nH]1
Cytochrome P450 2D6
  AC50: 0.562 µM (inconclusive)

## CCN(CC)CCCOC(=O)c1ccc(OC)cc1O
[2]
  EC50: 0.743 µM (active)
[3]
  EC50: > 60 µM (not active)

## N#Cc1cccc(NC(=O)N2CCCC3(CCN(C(=O)c4cccc(F)c4)CC3)C2)c1
Cytochrome P450 2D6
  AC50: 39.8 µM (inconclusive)
Cytochrome P450 1A2
  AC50: 12.6 µM (inconclusive)
Cytochrome P450 2C9
  AC50: 31.6 µM (inconclusive)

## CCOc1ccccc1Nc1nc(-c2sc(NC(=O)c3ccccc3)nc2C)cs1
Cytochrome P450 2D6
  AC50: 20 µM (inconclusive)
Cytochrome P450 1A2
  AC50: 6.31 µM (inconclusive)

## CC(C)(C)c1cc(/C=C(\C#N)C(N)=S)cc(C(C)(C)C)c1O [TYRPHOSTIN AG 879]
Cytochrome P450 2D6
  AC50: 39.8 µM (inconclusive)

## COc1ccccc1CNc1ncnc2ccc(-c3ccc4c(c3)OCO4)cc12
Cytochrome P450 2C9
  AC50: 0.398 µM (inconclusive)

## Clc1ccc2c(N3CCC(CCC4CCN(c5ncnc6cc(Cl)ccc56)CC4)CC3)ncnc2c1
Cytochrome P450 1A2
  AC50: 3.16 µM (inconclusive)

## COc1cccc(-c2cncnc2NCc2cccs2)c1
Cytochrome P450 2D6
  AC50: 20 µM (inconclusive)

## Clc1ccc2[nH]cc(-c3nnnn3-c3ccc4ccccc4c3)c2c1
[2]
  EC50: 1.97 µM (active)
[3]
  EC50: > 60 µM (not active)

## O=C(c1cc(C(F)(F)F)cc(C(F)(F)F)c1)N1CCC[C@@]2(CCN(c3ccccn3)C2)C1
Cytochrome P450 2D6
  AC50: 20 µM (inconclusive)
Cytochrome P450 1A2
  AC50: 25.1 µM (inconclusive)

## CC(C)OC(=O)c1cc2c(ccn2C)n1CC(=O)N1CCC(Cc2ccccc2)CC1
Cytochrome P450 2D6
  AC50: 20 µM (inconclusive)
Cytochrome P450 1A2
  AC50: 25.1 µM (inconclusive)

## COc1ccc(-n2c(=O)c(-c3ccc(Cl)cc3)nc3cnc(N4CCOCC4)nc32)cc1
Cytochrome P450 2C9
  AC50: 31.6 µM (inconclusive)

## Cc1cc(C)n(-c2ccc3nnc(C)n3n2)n1
[1]
  CC50: 22 µM (active)

## COc1cc(O)oc1/C=N/c1ccc(C(F)(F)F)cc1
Cytochrome P450 2D6
  AC50: 15.8 µM (inconclusive)
Cytochrome P450 2C9
  AC50: 17.8 µM (inconclusive)

## CCCCSC(=S)N(C)C1CCS(=O)(=O)C1 (stereo not given)
Cytochrome P450 1A2
  AC50: 25.1 µM (inconclusive)

## O=C(N/N=C/c1ccc([N+](=O)[O-])o1)C(O)c1ccccc1 (stereo not given)
[2]
  EC50: 0.565 µM (active)
[3]
  EC50: > 60 µM (not active)

## CSc1cc(C)nc(NC(C)=O)n1
Cytochrome P450 1A2
  AC50: 1.26 µM (inconclusive)
Cytochrome P450 2C9
  AC50: 3.16 µM (inconclusive)

## c1ccc(Cc2ccc(OCCCNC3CCCC3)cc2)cc1
[2]
  EC50: 0.781 µM (active)
[3]
  EC50: > 30 µM (not active)

## COc1ccc(C2SCC(=O)N2CC23CC4CC(CC(C4)C2)C3)cc1 (stereo not given)
[2]
  EC50: 2.87 µM (active)
[3]
  EC50: > 60 µM (not active)

## CCN1CCN(c2ccc(NC(=O)C(C)C)cc2Cl)CC1
Cytochrome P450 2D6
  AC50: 14.1 µM (inconclusive)

## CCN1CCCc2cc(CN(CCN3CCOCC3)C(S)=Nc3cccc(C)c3)ccc21
[2]
  EC50: 1.62 µM (active)
[3]
  EC50: > 60 µM (not active)

## COc1cc(CN2CCCC(C(=O)Nc3cccc(-n4cccn4)c3)C2)ccc1F (stereo not given)
[2]
  EC50: 0.194 µM (active)
[3]
  EC50: > 60 µM (not active)

## Cc1ccc(CNC(=O)c2nnn(-c3cccc(C)c3)c2N)cc1
Cytochrome P450 2D6
  AC50: 39.8 µM (inconclusive)
Cytochrome P450 2C9
  AC50: 39.8 µM (inconclusive)

## CCCCC(=O)Nc1cc(OCC)c(NC(=O)c2ccccc2[N+](=O)[O-])cc1OCC
Cytochrome P450 1A2
  AC50: 14.1 µM (inconclusive)

## Cc1ccc(OCCOCCn2cnc3ccccc3c2=O)cc1C
[1]
  CC50: 23.3 µM (active)

## COc1ccc2[nH]cc(CCNc3ccnc(-c4cccnc4)n3)c2c1
Cytochrome P450 2C9
  AC50: 0.794 µM (inconclusive)

## CN(C)C(=O)c1ccc(-c2cncnc2NC2CCNCC2)cc1
Cytochrome P450 1A2
  AC50: 25.1 µM (inconclusive)

## Cc1[nH]c2ccc(F)cc2c1CCN(Cc1cccnc1)C(S)=Nc1ccccc1
[2]
  EC50: 0.953 µM (active)
[3]
  EC50: > 60 µM (not active)

## COc1ccc2nc(NC(=O)C3CCCN(S(=O)(=O)c4cccc5nonc45)C3)sc2c1 (stereo not given)
[1]
  CC50: > 50 µM (active)

## COc1ccc(CC(=O)NC(=S)Nc2cccc(C)c2)cc1
[4]
  EC50: 9.53 µM (active)

## O=C(c1cnccn1)N1CCC[C@@]2(CCN(c3ccccc3)C2)C1
Cytochrome P450 1A2
  AC50: 15.8 µM (inconclusive)

## CCN1CCN(CC(=O)N2CCCC(C(=O)c3ccc(Oc4ccccc4)cc3)C2)CC1 (stereo not given)
[2]
  EC50: 0.478 µM (active)
[3]
  EC50: > 30 µM (not active)

## CCOC(=O)N1CCC(N2CCCC(C(=O)c3cc(F)ccc3OC)C2)CC1 (stereo not given)
[2]
  EC50: 2.66 µM (active)
[3]
  EC50: > 60 µM (not active)

## Cc1nn(-c2ccc([N+](=O)[O-])cc2)c2c1C(c1cccc(Br)c1)N1C(=N2)C(=O)Nc2ccccc21 (stereo not given)
[2]
  EC50: 2.13 µM (active)
[3]
  EC50: > 60 µM (not active)

## COCCn1c(=O)c(-c2cccc(C#N)c2)nc2cnc(N3CCOCC3)nc21
Cytochrome P450 1A2
  AC50: 10 µM (inconclusive)
Cytochrome P450 2C9
  AC50: 12.6 µM (inconclusive)

## O=C(Nc1ccncc1)c1ccc(Cl)c(Cl)c1
[2]
  EC50: 0.472 µM (active)
[3]
  EC50: > 30 µM (not active)

## O=C1C2Sc3nc(O)sc3C(c3ccccc3)C2C(=O)N1c1ccc(Cl)cc1 (stereo not given)
Cytochrome P450 2D6
  AC50: 22.4 µM (inconclusive)

## Cn1c(C(=O)OC(C(=O)NC2CCCCC2)c2ccncc2)cc2sccc21 (stereo not given)
[2]
  EC50: > 30 µM (not active)
[3]
  EC50: > 30 µM (not active)

## CSc1ccc(CN(C)CCc2ccccn2)cc1
[2]
  EC50: 0.143 µM (active)
[3]
  EC50: > 30 µM (not active)

## CCCNC(=O)OC[C@@H]1O[C@H](CCO/N=C(\C)CCN2CCCCc3nc(C)c(C)cc32)C=C[C@@H]1Oc1ccc(OC)cc1
Cytochrome P450 2D6
  AC50: 2.51 µM (inconclusive)
Cytochrome P450 2C9
  AC50: 3.98 µM (inconclusive)

## Cc1csc(NC(=O)Cc2ccccc2[N+](=O)[O-])n1
[4]
  EC50: > 53 µM (inactive)

## Cn1c(=O)c([N+](=O)[O-])c(NCCc2ccccc2)c2ccccc21
[2]
  EC50: 0.554 µM (active)
[3]
  EC50: > 60 µM (not active)

## O=C(C[N+]1(c2ccccc2)CCOCC1)c1ccccc1
Cytochrome P450 2C9
  AC50: 6.31 µM (inconclusive)

## Cc1cccc(CNc2cc(-c3c(C)noc3C)ncn2)c1
Cytochrome P450 2D6
  AC50: 31.6 µM (inconclusive)

## COc1ccc(-c2ccc3c(n2)CCCN3C[C@H](O)CN2CCCc3nc(C)c(C)cc32)cc1
Cytochrome P450 2D6
  AC50: 3.16 µM (inconclusive)

## Cc1cc(C(=O)N/N=C/c2cccc(OC(=O)c3ccco3)c2)[nH]n1
Cytochrome P450 1A2
  AC50: 22.4 µM (inconclusive)

## O=S(=O)(c1ccccc1)N1CCC[C@@]2(CCN(C(c3ccccc3)c3ccccc3)C2)C1
Cytochrome P450 2C9
  AC50: 10 µM (inconclusive)

## CCN(CC)CCNC(=O)c1ccc(Cl)c(S(=O)(=O)Nc2ccccc2OC)c1
Cytochrome P450 2C9
  AC50: 12.6 µM (inconclusive)

## Cc1ccc(S(=O)(=O)c2nc(S(=O)(=O)c3ccc(C)cc3)c(NCc3ccco3)s2)cc1
Cytochrome P450 2C9
  AC50: 5.62 µM (inconclusive)

## c1ccc(CCNc2nc3ccccc3n3nnnc23)cc1
[4]
  EC50: > 53 µM (inactive)
